Patent US6432430B1, “Exfoliating scrub with niacinamide” (priority 2000, dated 2002)

Tested on: acne
Assay: topical use of the exfoliating scrub on acne, washed off immediately after use
Format: in vivo
Conditions: niacinamide in exfoliating cream, cream immediately removed
From the text: The cream is applied to the affected area, typically the face, and is used in the same manner as other exfoliating scrubs by massaging the cream into the skin. The abrasive agent acts to remove dead skin cells and the niacinamide is brought into direct contact with the affected areas. The cream is then removed by washing the area with water, and if desired, a mild soap. […] The frequency with which the exfoliating scrub is applied depends upon several factors, including the severity of the skin condition, and the user's skin type and sensitivity. Patients having oily skin may use the scrub as often as once to twice per day. Patients having dry skin or sensitive skin generally will use the scrub less often. The precise frequency is determined on a case by case basis influenced by the actual results achieved. As described above, the cream is topically applied to the area to be treated and is gently massaged into the skin. The cream is then immediately removed, preferably with warm water. The skin may beneficially be thoroughly cleansed prior to application of the cream of the present invention. In all cases the scrub is washed from the skin immediately after use.

SMILES: NC(=O)c1cccnc1 [niacinamide]
- therapeutic effect on acne: beneficial therapeutic effect on acne
